Laboratory results taken from patent publication EP3421457B1, “PYRIMIDINE FGFR4 INHIBITORS” (priority 2013, dated 2015).
Counter-ions that a name gives are not always drawn.

What follows are molecules tested against T1, FGFR4 (Homo sapiens, UniProt P22455) (assay: IC50 Profiling of Kinase Activity Inhibition (Kinase HotSpot assay)). Conditions: not given.
T1 construct: purchased Invitrogen
T1 sequence (P22455 22-802): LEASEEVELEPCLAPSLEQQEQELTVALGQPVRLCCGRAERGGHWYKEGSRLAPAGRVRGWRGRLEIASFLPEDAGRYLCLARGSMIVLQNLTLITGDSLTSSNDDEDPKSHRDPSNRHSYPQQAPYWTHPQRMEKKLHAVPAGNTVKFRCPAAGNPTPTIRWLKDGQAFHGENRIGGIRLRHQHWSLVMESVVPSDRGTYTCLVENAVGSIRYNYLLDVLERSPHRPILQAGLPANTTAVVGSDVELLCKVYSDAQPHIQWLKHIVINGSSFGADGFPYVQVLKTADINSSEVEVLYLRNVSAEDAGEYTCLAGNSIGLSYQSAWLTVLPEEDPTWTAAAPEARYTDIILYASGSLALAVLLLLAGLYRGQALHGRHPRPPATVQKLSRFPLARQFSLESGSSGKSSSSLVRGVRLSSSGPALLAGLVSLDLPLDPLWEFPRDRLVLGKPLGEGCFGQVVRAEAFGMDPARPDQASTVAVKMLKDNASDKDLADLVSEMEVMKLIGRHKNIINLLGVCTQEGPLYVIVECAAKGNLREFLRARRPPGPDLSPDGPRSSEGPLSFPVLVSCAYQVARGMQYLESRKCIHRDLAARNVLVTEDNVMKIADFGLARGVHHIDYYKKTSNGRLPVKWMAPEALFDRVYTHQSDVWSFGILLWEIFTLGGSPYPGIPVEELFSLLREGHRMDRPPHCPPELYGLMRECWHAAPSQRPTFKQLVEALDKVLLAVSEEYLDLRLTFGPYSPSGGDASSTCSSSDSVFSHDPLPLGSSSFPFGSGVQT
Assay type: biochemical
For C=CC(=O)Nc1cc(N2CCN(C(C)=O)CC2)ccc1Nc1cc(N(C)C(=O)Nc2c(Cl)c(OC)cc(OC)c2Cl)ncn1 [Compound 154, N-(5-(4-acetylpiperazin-1-yl)-2-((6-(3-(2,6-dichloro-3,5-dimethoxyphenyl)-1-methylureido)pyrimidin-4-yl)amino)phenyl)acrylamide], the IC50 was < 1 nM.

Same assay, conditions: Table 1
With COc1cc(OC)c(Cl)c(NC(=O)N(C)c2cc(Nc3ccccc3NC(=O)/C=C\Cl)ncn2)c1Cl [Compound 171, (Z)-3-chloro-N-(2-((6-(3-(2,6-dichloro-3,5-dimethoxyphenyl)-1-methylureido)pyrimidin-4-yl)amino)phenyl)acrylamide] the IC50 was 3 nM. In the case of C=CC(=O)Nc1cc(N2C[C@@H](C)N[C@@H](C)C2)ccc1Nc1cc(N(C)C(=O)Nc2c(Cl)c(OC)cc(OC)c2Cl)ncn1 [Compound 124, N-[2-{6-[3-(2,6-Dichloro-3,5-dimethoxy-phenyl)-1-methyl-ureido]-pyrimidin-4-ylamino}-5-(3,5-dimethyl-piperazin-1-yl)-phenyl]-acrylamide], the IC50 is reported as < 1 nM. In the case of C=CC(=O)Nc1cc(C(=O)N(C)C)ccc1Nc1cc(N(C)C(=O)Nc2c(Cl)c(OC)cc(OC)c2Cl)ncn1 [Compound 149, 3-acrylamido-4-((6-(3-(2,6-dichloro-3,5-dimethoxyphenyl)-1-methylureido)pyrimidin-4-yl)amino)-N,N-dimethylbenzamide], the IC50 is reported as < 1 nM. In the case of C=CC(=O)Nc1c(Nc2cc(N(C)C(=O)Nc3c(Cl)c(OC)cc(OC)c3Cl)ncn2)cccc1OC [Compound 186], the IC50 is reported as 345 nM. For C=CC(=O)Nc1cccc(OC)c1Nc1cc(N(C)C(=O)Nc2c(Cl)c(OC)cc(OC)c2Cl)ncn1 [Compound 166, N-(2-((6-(3-(2,6-dichloro-3,5-dimethoxyphenyl)-1-methylureido)pyrimidin-4-yl)amino)-3-methoxyphenyl)acrylamide], the IC50 was < 1 nM. For C#CC(=O)Nc1ccccc1Nc1cc(N(C)C(=O)Nc2c(Cl)c(OC)cc(OC)c2Cl)ncn1 [Compound 114, N-(2-(6-(3-(2,6-dichloro-3,5-dimethoxyphenyl)-1-methylureido)pyrimidin-4-ylamino)phenyl)propiolamide], the IC50 was < 1 nM. For C=CC(=O)Nc1cc(C(C)O)ccc1Nc1cc(N(C)C(=O)Nc2c(Cl)c(OC)cc(OC)c2Cl)ncn1 (stereo not shown) [Compound 156, N-(2-((6-(3-(2,6-dichloro-3,5-dimethoxyphenyl)-1-methylureido)pyrimidin-4-yl)amino)-5-(1-hydroxyethyl)phenyl) acrylamide], the IC50 was < 1 nM. For CCN1CCN(c2ccc(Nc3cc(N(C)C(=O)Nc4c(Cl)c(OC)cc(OC)c4Cl)ncn3)c(NC(=O)/C=C\Cl)c2)CC1 [Compound 181, (Z)-3-chloro-N-(2-((6-(3-(2,6-dichloro-3,5-dimethoxyphenyl)-1-methylureido)pyrimidin-4-yl)amino)-5-(4-ethylpiperazin-1-yl)phenyl)acrylamide], the IC50 was < 1 nM. C=CC(=O)Nc1ccccc1Nc1cc(N(CCOC)C(=O)Nc2c(Cl)c(OC)cc(OC)c2Cl)ncn1 [Compound 116, N-(2-{6-[3-(2,6-Dichloro-3,5-dimethoxy-phenyl)-1-(2-methoxy-ethyl)-ureido]-pyrimidin-4-ylamino}-phenyl)-acrylamide] gave an IC50 of 4 nM. Molecule COc1cc(OC)c(Cl)c(NC(=O)N(C)c2cc(Nc3ccccc3NC(=O)/C=C/Cl)ncn2)c1Cl [Compound 170, (E)-3-chloro-N-(2-((6-(3-(2,6-dichloro-3,5-dimethoxyphenyl)-1-methylureido)pyrimidin-4-yl)amino)phenyl)acrylamide] has an IC50 of 8 nM. C=CC(=O)Nc1cc(N2CCN(CC)CC2)ccc1Nc1cc(N(C)C(=O)Nc2c(F)c(OC)cc(OC)c2Cl)ncn1 [Compound 144, N-(2-((6-(3-(2-chloro-6-fluoro-3,5-dimethoxyphenyl)-1-methylureido)pyrimidin-4-yl)amino)-5-(4-ethylpiperazin-1-yl)phenyl)acrylamide] was tested, and the IC50 was < 1 nM. For C=CC(=O)Nc1cc(N2CCN(C)CC2)ccc1Nc1cc(N(C)C(=O)Nc2c(Cl)c(OC)cc(OC)c2Cl)ncn1 [Compound 159], the IC50 was < 1 nM. Work on C=CC(=O)Nc1ccccc1Nc1cc(N(CCNC(C)C)C(=O)Nc2c(Cl)c(OC)cc(OC)c2Cl)ncn1 [Compound 183] yielded an IC50 of 180 nM. C=CC(=O)Nc1cccc(C)c1Nc1cc(N(C)C(=O)Nc2c(Cl)c(OC)cc(OC)c2Cl)ncn1 [Compound 165, N-(2-((6-(3-(2,6-dichloro-3,5-dimethoxyphenyl)-1-methylureido)pyrimidin-4-yl)amino)-3-methylphenyl)acrylamide] was tested, and the IC50 was < 1 nM. C=CC(=O)Nc1c(F)cccc1Nc1cc(N(C)C(=O)Nc2c(Cl)c(OC)cc(OC)c2Cl)ncn1 [Compound 185, N-(2-((6-(3-(2,6-dichloro-3,5-dimethoxyphenyl)-1-methylureido)pyrimidin-4-yl)amino)-6-fluorophenyl)acrylamide] showed an IC50 of 13 nM. C=CC(=O)Nc1cc(N(C)CCO)ccc1Nc1cc(N(C)C(=O)Nc2c(Cl)c(OC)cc(OC)c2Cl)ncn1 [Compound 158, N-(2-((6-(3-(2,6-dichloro-3,5-dimethoxyphenyl)-1-methylureido)pyrimidin-4-yl)amino)-5-((2-hydroxyethyl)(methyl)amino)phenyl)acrylamide] was tested, and the IC50 was < 1 nM. For C=CC(=O)Nc1cc(N2CCN(CCO)CC2)ccc1Nc1cc(N(C)C(=O)Nc2c(Cl)c(OC)cc(OC)c2Cl)ncn1 [Compound 168, N-(2-((6-(3-(2,6-dichloro-3,5-dimethoxyphenyl)-1-methylureido)pyrimidin-4-yl)amino)-5-(4-(2-hydroxyethyl)piperazin-1-yl)phenyl)acrylamide TFA salt], the IC50 was < 1 nM. For C=CC(=O)Nc1ccccc1Nc1cc(N(Cc2ccncc2)C(=O)Nc2c(Cl)c(OC)cc(OC)c2Cl)ncn1 [Compound 132], the IC50 was < 1 nM. In the case of C=CC(=O)Nc1ccccc1Nc1cc(N(CCCN2CCN(C)CC2)C(=O)Nc2c(Cl)c(OC)cc(OC)c2Cl)ncn1 [Compound 121, N-[2-(6-{3-(2,6-Dichloro-3,5-dimethoxy-phenyl)-1-[3-(4-methyl-piperazin-1-yl)-propyl]-ureido}-pyrimidin-4-ylamino)-phenyl]-acrylamide], the IC50 is reported as < 1 nM. C=CC(=O)Nc1cc(C(=O)N2CCN(CC)CC2)ccc1Nc1cc(N(C)C(=O)Nc2c(Cl)c(OC)cc(OC)c2Cl)ncn1 [Compound 150, N-(2-((6-(3-(2,6-dichloro-3,5-dimethoxyphenyl)-1-methylureido)pyrimidin-4-yl)amino)-5-(4-ethylpiperazine-1-carbonyl)phenyl)acrylamide] was tested, and the IC50 was < 1 nM. With C=CC(=O)Nc1cc(N2CCN(CCN)CC2)ccc1Nc1cc(N(C)C(=O)Nc2c(Cl)c(OC)cc(OC)c2Cl)ncn1 [Compound 161, N-(5-(4-(2-aminoethyl)piperazin-1-yl)-2-((6-(3-(2,6-dichloro-3,5-dimethoxyphenyl)-1-methylureido)pyrimidin-4-yl)amino)phenyl)acrylamide 2 TFA salt] the IC50 was < 1 nM. For C=CC(=O)Nc1cccc(Cl)c1Nc1cc(N(C)C(=O)Nc2c(Cl)c(OC)cc(OC)c2Cl)ncn1 [Compound 167, N-(3-chloro-2-((6-(3-(2,6-dichloro-3,5-dimethoxyphenyl)-1-methylureido)pyrimidin-4-yl)amino)phenyl)acrylamide], the IC50 was < 1 nM. For C=CC(=O)Nc1cc(COC)ccc1Nc1cc(N(C)C(=O)Nc2c(Cl)c(OC)cc(OC)c2Cl)ncn1 [Compound 147, N-(2-((6-(3-(2,6-dichloro-3,5-dimethoxyphenyl)-l-methylureido)pyrimidin-4-yl)amino)-5-(methoxymethyl)phenyl)acrylamide], the IC50 was < 1 nM. With C=CC(=O)N(C)c1cc(N2CCN(CC)CC2)ccc1Nc1cc(N(C)C(=O)Nc2c(Cl)c(OC)cc(OC)c2Cl)ncn1 [Compound 152] the IC50 was 14 nM. With C=CC(=O)Nc1ccccc1Nc1cc(N(Cc2ccccc2)C(=O)Nc2c(Cl)c(OC)cc(OC)c2Cl)ncn1 [Compound 130, N-(2-{6-[1-Benzyl-3-(2,6-dichloro-3,5-dimethoxy-phenyl)-ureido]-pyrimidin-4-ylamino}-phenyl)-acrylamide] the IC50 was 2 nM. In the case of C=CC(=O)Nc1cc(N2CCN(CC)CC2)ccc1Nc1cc(N(C)C(=O)Nc2c(F)c(OC)cc(OC)c2F)ncn1 [Compound 143], the IC50 is reported as 10 nM. For C=CC(=O)Nc1cc(C2CCN(C)CC2)ccc1Nc1cc(N(C)C(=O)Nc2c(Cl)c(OC)cc(OC)c2Cl)ncn1 [Compound 112, N-(2-(6-(3-(2,6-dichloro-3,5-dimethoxyphenyl)-1-methylureido)pyrimidin-4-ylamino)-5-(1-methylpiperidin-4-yl)phenyl)acrylamide], the IC50 was < 1 nM. C=CC(=O)Nc1cc(N2CCN(CC)CC2)ccc1Nc1cc(N(C)C(=O)Nc2c(Cl)cccc2Cl)ncn1 [Compound 140, N-(2-((6-(3-(2,6-dichlorophenyl)-1-methylureido)pyrimidin-4-yl)amino)-5-(4-ethylpiperazin-1-yl)phenyl)acrylamide] was tested, and the IC50 was < 1 nM. C=CC(=O)Nc1cc(N2CCN(S(C)(=O)=O)CC2)ccc1Nc1cc(N(C)C(=O)Nc2c(Cl)c(OC)cc(OC)c2Cl)ncn1 [Compound 125, N-[2-{6-[3-(2,6-Dichloro-3,5-dimethoxy-phenyl)-1-methyl-ureido]-pyrimidin-4-ylamino}-5-(4-methanesulfonyl-piperazin-1-yl)-phenyl]-acrylamide] was tested, and the IC50 was < 1 nM. With C=CC(=O)Nc1cc(C(C)OC)ccc1Nc1cc(N(C)C(=O)Nc2c(Cl)c(OC)cc(OC)c2Cl)ncn1 (stereo not shown) [Compound 155, N-(2-((6-(3-(2,6-dichloro-3,5-dimethoxyphenyl)-1-methylureido)pyrimidin-4-yl)amino)-5-(1-methoxyethyl)phenyl)acrylamide] the IC50 was < 1 nM. C=CC(=O)Nc1ccccc1Nc1cc(N(Cc2ccccn2)C(=O)Nc2c(Cl)c(OC)cc(OC)c2Cl)ncn1 [Compound 131, N-(2-{6-[3-(2,6-Dichloro-3,5-dimethoxy-phenyl)-1-pyridin-2-ylmethyl-ureido]-pyrimidin-4-ylamino}-phenyl)-acrylamide] was tested, and the IC50 was < 1 nM. For C=CC(=O)Nc1cc(OCCO)ccc1Nc1cc(N(C)C(=O)Nc2c(Cl)c(OC)cc(OC)c2Cl)ncn1 [Compound 164, 2,2,2-trifluoroacetate], the IC50 was < 1 nM. For C=CC(=O)Nc1cc(N2CCN(CC)CC2)ccc1Nc1cc(N(C)C(=O)Nc2cc(OC)cc(OC)c2Cl)ncn1 [Compound 141, N-(2-((6-(3-(2-chloro-3,5-dimethoxyphenyl)-1-methylureido)pyrimidin-4-yl)amino)-5-(4-ethylpiperazin-1-yl)phenyl)acrylamide], the IC50 was 2 nM.
